Results: ChEMBL document CHEMBL1201862, “PubChem BioAssay data set” (2004)
Several values for one entry are separate records, joined by “and”; a condition that tells them apart may be missing. Equal values may be shown once.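 Step 1: Grow cells in 96-well plates. Step 2: Expose to compound for 48 hours at 5 concentrations. Step 3: Interpolate endpoints linearly; if unreached, use highest concentration. Abbreviation: GI50, concentration required for 50% inhibition of growth.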 Activity calls are given as the source filed them. Cut-off read from the data, not from the text of the source: active = GI50 up to about 1.1 µM and inactive = higher.

Legend:
Test in all cases: NCI tumour cell line growth inhibition, 48 h
UO-31 = test system: UO-31
SF-295 = test system: SF-295
NCI-H226 = test system: NCI-H226
OVCAR-4 = test system: OVCAR-4
LOX IMVI = test system: LOX IMVI
SN12C = test system: SN12C
Hs-578T = test system: Hs-578T
CCRF-CEM = test system: CCRF-CEM
SK-MEL-2 = test system: SK-MEL-2
HCT-116 = test system: HCT-116
HL-60 = test system: HL-60
A498 = test system: A498
COLO 205 = test system: COLO 205
SK-OV-3 = test system: SK-OV-3
PC-3 = test system: PC-3
SNB-19 = test system: SNB-19
HOP-62 = test system: HOP-62
HT-29 = test system: HT-29
KM12 = test system: KM12

Row | SMILES | GI50 (UO-31) | GI50 (SF-295) | GI50 (NCI-H226) | GI50 (OVCAR-4) | GI50 (LOX IMVI) | GI50 (SN12C) | GI50 (Hs-578T) | GI50 (CCRF-CEM) | GI50 (SK-MEL-2) | GI50 (HCT-116) | GI50 (HL-60) | GI50 (A498) | GI50 (COLO 205) | GI50 (SK-OV-3) | GI50 (PC-3) | GI50 (SNB-19) | GI50 (HOP-62) | GI50 (HT-29) | GI50 (KM12)
1 | O=C1CCC(c2ccccc2)(c2ccccc2)CC1 | 65 µM (inactive) | > 100 µM (inactive) | 36.6 µM (inactive) | > 100 µM (inactive) | > 100 µM (inactive) | 38.1 µM (inactive) | 81.1 µM (inactive) | 19.8 µM (inactive) | > 100 µM (inactive) | 41.3 µM (inactive) | 33.5 µM (inactive) | > 100 µM (inactive) | 27.9 µM (inactive) | > 100 µM (inactive) | 73.6 µM (inactive) | > 100 µM (inactive) | > 100 µM (inactive) | 55.5 µM (inactive) | > 100 µM (inactive)
2 | COC(=O)C1=C(C)NC2=C(C(=O)c3ccccc32)C1c1c[nH]nc1-c1ccccc1 (stereo not given) | > 100 µM (inactive) | > 100 µM (inactive) | 41.2 µM (inactive) | 54.7 µM (inactive) |  | 72.9 µM (inactive) | 21.5 µM (inactive) | 40.3 µM (inactive) | 33.7 µM (inactive) | > 100 µM (inactive) | 39.8 µM (inactive) | 48.5 µM (inactive) | 20.9 µM (inactive) | > 100 µM (inactive) | 52.1 µM (inactive) | 41.5 µM (inactive) | 64.9 µM (inactive) | 24.3 µM (inactive) | 86.7 µM (inactive)
3 | Nc1ncnc2c1ccn2C1OC2COP(=O)(O)OC2C1O (stereo not given) | 0.196 µM (active) | 0.641 µM (active) | 2.9 µM (inactive) | 0.174 µM (active) | 0.0735 µM (active) | 0.207 µM (active) | 0.502 µM (active) | 0.773 µM (active) | 0.458 µM (active) | 0.17 µM (active) | < 0.0476 µM (active) | 1.15 µM (inactive) | 0.181 µM (active) | 0.197 µM (active) | 0.163 µM (active) | 1.61 µM (inactive) | 0.501 µM (active) | 0.137 µM (active) | 0.363 µM (active)
4 | Cn1c2c(c3c(=O)[nH]ncc31)CCc1ccccc1-2 | 22.5 µM (inactive) | 32.9 µM (inactive) | 29.4 µM (inactive) | 44.7 µM (inactive) | 17.6 µM (inactive) | 34.8 µM (inactive) | 10.2 µM (inactive) | 20.8 µM (inactive) | 24.6 µM (inactive) | 20.1 µM (inactive) | 27 µM (inactive) | 16.3 µM (inactive) | 30 µM (inactive) | 61.1 µM (inactive) | 28.2 µM (inactive) | 45.8 µM (inactive) | 78.5 µM (inactive) | 32.6 µM (inactive) | 23 µM (inactive)
5 | Cc1ccc(/C=C2/N/C(=N\N=C/C(O)C(O)C(O)CO)NC2=O)cc1 (stereo not given) | > 100 µM (inactive) | > 100 µM (inactive) | 63.5 µM (inactive) and 66.2 µM (inactive) | 33.1 µM (inactive) and 35.8 µM (inactive) | > 100 µM (inactive) | > 100 µM (inactive) | > 100 µM (inactive) |  | > 100 µM (inactive) | > 100 µM (inactive) | 56.5 µM (inactive) and 56.4 µM (inactive) | > 100 µM (inactive) | > 100 µM (inactive) | > 100 µM (inactive) | > 100 µM (inactive) | > 100 µM (inactive) | > 100 µM (inactive) | > 100 µM (inactive) | > 100 µM (inactive)
6 | CC(=O)OC1[C@@H](OC(C)=O)CN(OCc2ccccc2)C[C@H]1OC(C)=O (stereo not given in full) | > 100 µM (inactive) | > 100 µM (inactive) | > 100 µM (inactive) | > 100 µM (inactive) | > 100 µM (inactive) | > 100 µM (inactive) | > 100 µM (inactive) | > 100 µM (inactive) | > 100 µM (inactive) | > 100 µM (inactive) | > 100 µM (inactive) | > 100 µM (inactive) | > 100 µM (inactive) | 33 µM (inactive) | > 100 µM (inactive) | > 100 µM (inactive) | > 100 µM (inactive) | > 100 µM (inactive) | > 100 µM (inactive)
7 | CC(C)(C)/C(O)=C\c1nc2cc(F)c(F)cc2[nH]c1=O | > 100 µM (inactive) | > 100 µM (inactive) | > 100 µM (inactive) | > 100 µM (inactive) | > 100 µM (inactive) |  | > 100 µM (inactive) | > 100 µM (inactive) | > 100 µM (inactive) | > 100 µM (inactive) | > 100 µM (inactive) | > 100 µM (inactive) | > 100 µM (inactive) | > 100 µM (inactive) | > 100 µM (inactive) | > 100 µM (inactive) | > 100 µM (inactive) | > 100 µM (inactive) | > 100 µM (inactive)
